Assay type in all cases: cell-based
In one test the test system is Serratia marcescens. In words: MIC against Gram-negative bacteria: Serratia marcescens. The conditions noted are these: for MIC against S. marcescens / MIC S. marcescens: 5×10^5 CFU/mL. In short, it runs like this:
(§1)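 Growth inhibition by human EGF domain proteins was scored in LB liquid culture seeded at 5×10^5 CFU/mL. Protein was applied as a two-fold dilution series in triplicate, with shaking incubation at 37° C; MIC is the lowest concentration giving no growth.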

For a further test, the system named is Pseudomonas aeruginosa. The test is described as follows: MIC against Gram-negative bacteria: Pseudomonas aeruginosa. Conditions: for MIC against P. aeruginosa / MIC P. aeruginosa: 5×10^5 CFU/mL. In short, it runs like this: as §1
For another test, the system named is E. coli DH5α. The test is described as follows: Antibacterial activity: MIC and growth curve against E. coli DH5α in 96-well plate. Conditions: minimal inhibitory concentration against E. coli DH5α; 96-well plate, 5×10^5 CFU/mL, 37° C., judged after 8 h. In short, it runs like this:
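MIC taken as lowest protein level with no bacterial growth, tracked by A600 every 30 min during 37 °C, 175 rpm culture. Two-fold protein series 50-12.5 μg/mL final, triplicate wells, against 5×10^5 CFU/mL of LB-washed mid-log cells.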

The test system of the next test is Moraxella catarrhalis. In words: MIC against Gram-negative bacteria: Moraxella catarrhalis. The conditions noted are these: for MIC against M. catarrhalis / MIC M. catarrhalis: 5×10^5 CFU/mL. In short, it runs like this:
as §1

In the next test the test system is Proteus vulgaris. In words: MIC against Gram-negative bacteria: Proteus vulgaris. The conditions noted are these: for MIC against P. vulgaris / MIC P. vulgaris: 5×10^5 CFU/mL. In short, it runs like this:
as §1

The next test has as its system Aeromonas hydrophila. In words: MIC against Gram-negative bacteria: Aeromonas hydrophila. Conditions: for MIC against A. hydrophila / MIC A. hydrophila: 5×10^5 CFU/mL. In short, it runs like this: as §1
A further test relates to Proteus mirabilis. In words: MIC against Gram-negative bacteria: Proteus mirabilis. The conditions noted are these: for MIC against P. mirabilis / MIC P. mirabilis: 5×10^5 CFU/mL. In short, it runs like this: as §1
Another test concerns E. coli BL21. In words: MIC against Gram-negative bacteria: E. coli BL21. The conditions noted are these: for MIC against E. coli BL21 / MIC E. coli BL21: 5×10^5 CFU/mL. In short, it runs like this:
as §1

The test system of a further test is Enterobacter cloacae. The test is described as follows: MIC against Gram-negative bacteria: Enterobacter cloacae. Conditions: for MIC against E. cloacae / MIC E. cloacae: 5×10^5 CFU/mL. In short, it runs like this:
as §1

Another test relates to Klebsiella pneumonia. The test is described as follows: MIC against Gram-negative bacteria: Klebsiella pneumonia. The conditions noted are these: for MIC against K. pneumonia / MIC K. pneumonia: 5×10^5 CFU/mL. In short, it runs like this:
as §1

The test system of a further test is Citrobacter diversus. The test is described as follows: MIC against Gram-negative bacteria: Citrobacter diversus. The conditions noted are these: for MIC against C. diversus / MIC C. diversus: 5×10^5 CFU/mL. In short, it runs like this:
as §1

Where [1] appears, read: E. coli BL21, 10 h cultivation at 37° C.
The mark [2] stands for this setting: Serratia marcescens, 10 h cultivation at 37° C.
[3] abbreviates: Pseudomonas aeruginosa, 10 h cultivation at 37° C.
[4] abbreviates: Moraxella catarrhalis, 10 h cultivation at 37° C.
The mark [5] stands for this setting: Proteus vulgaris, 10 h cultivation at 37° C.
[6] abbreviates: Aeromonas hydrophila, 10 h cultivation at 37° C.
Setting [7] is: Proteus mirabilis, 10 h cultivation at 37° C.
[8] abbreviates: Enterobacter cloacae, 10 h cultivation at 37° C.
Setting [9] is: Klebsiella pneumonia, 10 h cultivation at 37° C.
Where [10] appears, read: Citrobacter diversus, 10 h cultivation at 37° C.

On to “PRT481 (EITACSSSPCFHDGTCVLDKAGSYKCACLAGYTGQRCE; listed as Homo sapiens)”, for which, in the test on Serratia marcescens (96-well plate, 37° C., 10 h), the “MIC against S. marcescens” value was 12.5 µg/mL. The “MIC against P. aeruginosa” value in the test with Pseudomonas aeruginosa (96-well plate, 37° C., 10 h) came to 25 µg/mL. Moreover, the MIC (commonly the lowest concentration found to suppress growth) with E. coli DH5α was found to be 25 µg/mL. Also, the “MIC against M. catarrhalis” value against Moraxella catarrhalis (96-well plate, 37° C., 10 h) came out at 50 µg/mL. Besides, the “MIC against P. vulgaris” value with Proteus vulgaris (96-well plate, 37° C., 10 h) is 50 µg/mL. Also, the “MIC against A. hydrophila” value in the test with Aeromonas hydrophila (96-well plate, 37° C., 10 h) is 50 µg/mL. In addition, the “MIC against P. mirabilis” value in the test with Proteus mirabilis (96-well plate, 37° C., 10 h) was determined as 12.5 µg/mL. Also, the “MIC against E. coli BL21” value with E. coli BL21 (96-well plate, 37° C., 10 h) was determined as 12.5 µg/mL. Further, the “MIC against E. cloacae” value in the test with Enterobacter cloacae (96-well plate, 37° C., 10 h) turned out to be 12.5 µg/mL. In addition, in the test with Klebsiella pneumonia (96-well plate, 37° C., 10 h), the “MIC against K. pneumonia” value was 50 µg/mL. Further, in the test on Citrobacter diversus (96-well plate, 37° C., 10 h), the “MIC against C. diversus” value is 12.5 µg/mL.

With “PRT707 (GKTVCEDFCQNGGTCIVTAGNQPYCHCQPEYTGDRCQ; listed as Homo sapiens)”, the “MIC S. marcescens” value against Serratia marcescens (96-well plate, 37° C., 10 h) was 12.5 µg/mL. Besides, the “MIC P. aeruginosa” value in the test on Pseudomonas aeruginosa (96-well plate, 37° C., 10 h) is 50 µg/mL. The MIC with E. coli DH5α was 50 µg/mL. Moreover, the “MIC M. catarrhalis” value in the test on Moraxella catarrhalis (96-well plate, 37° C., 10 h) amounted to 12.5 µg/mL. Besides, the “MIC P. vulgaris” value against Proteus vulgaris (96-well plate, 37° C., 10 h) is 25 µg/mL. In addition, in the test with Aeromonas hydrophila (96-well plate, 37° C., 10 h), the “MIC A. hydrophila” value turned out to be 25 µg/mL. The “MIC P. mirabilis” value in the test on Proteus mirabilis (96-well plate, 37° C., 10 h) worked out at 12.5 µg/mL. Moreover, the “MIC E. coli BL21” value against E. coli BL21 (96-well plate, 37° C., 10 h) was 25 µg/mL. Moreover, in the test with Enterobacter cloacae (96-well plate, 37° C., 10 h), the “MIC E. cloacae” value was found to be 12.5 µg/mL. Also, the “MIC K. pneumonia” value against Klebsiella pneumonia (96-well plate, 37° C., 10 h) worked out at 12.5 µg/mL. The “MIC C. diversus” value against Citrobacter diversus (96-well plate, 37° C., 10 h) came to 12.5 µg/mL.

For “PRT1029 (PANPCEDGSHTCAPAGQARCVHHGGSTFSCACLPGYAGDGHQCT; listed as Homo sapiens)”, the MIC with Serratia marcescens (S. marcescens, 10 h cultivation at 37° C.) turned out to be 50 µg/mL; with Pseudomonas aeruginosa (P. aeruginosa, 10 h cultivation at 37° C.), 50 µg/mL; in the test with E. coli DH5α, 12.5 µg/mL; with Moraxella catarrhalis (M. catarrhalis, 10 h cultivation at 37° C.) it was 12.5 µg/mL; against Proteus vulgaris (P. vulgaris, 10 h cultivation at 37° C.), 12.5 µg/mL; in the test with Aeromonas hydrophila (A. hydrophila, 10 h cultivation at 37° C.), 12.5 µg/mL. The MIC with Proteus mirabilis (P. mirabilis, 10 h cultivation at 37° C.) was 50 µg/mL; with E. coli BL21 (setting [1]), 12.5 µg/mL; in the test on Enterobacter cloacae (E. cloacae, 10 h cultivation at 37° C.) it was 50 µg/mL; in the test with Klebsiella pneumonia (K. pneumonia, 10 h cultivation at 37° C.), 12.5 µg/mL; against Citrobacter diversus (C. diversus, 10 h cultivation at 37° C.) it was 50 µg/mL.

Regarding “PRT1366 (ERLACPGACSGHGRCVDGRCLCHEPYVGADCG; listed as Homo sapiens)”, the “MIC against S. marcescens” value in the test on Serratia marcescens (setting [2]) was 12.5 µg/mL. In addition, the “MIC against P. aeruginosa” value against Pseudomonas aeruginosa (setting [3]) came out at 12.5 µg/mL. The same substance displayed an MIC with E. coli DH5α of 12.5 µg/mL. The “MIC against M. catarrhalis” value against Moraxella catarrhalis (setting [4]) amounted to 12.5 µg/mL. The “MIC against P. vulgaris” value against Proteus vulgaris (setting [5]) was 12.5 µg/mL. Also, the “MIC against A. hydrophila” value in the test with Aeromonas hydrophila (setting [6]) is 12.5 µg/mL. For the same substance, in the test on Proteus mirabilis (setting [7]), the “MIC against P. mirabilis” value came to 12.5 µg/mL. Also, the “MIC against E. coli BL21” value against E. coli BL21 (setting [1]) turned out to be 12.5 µg/mL. For the same substance, the “MIC against E. cloacae” value against Enterobacter cloacae (setting [8]) turned out to be 12.5 µg/mL. Besides, in the test on Klebsiella pneumonia (setting [9]), the “MIC against K. pneumonia” value was determined as 25 µg/mL. Also, in the test with Citrobacter diversus (setting [10]), the “MIC against C. diversus” value was 12.5 µg/mL.

With “PRT646 (DIDECTQVQHLCSQGRCENTEGSFLCICPAGFMASEEGTNCI; listed as Homo sapiens)”, the “MIC S. marcescens” value against Serratia marcescens (96-well plate, 37° C., 10 h) came out at 50 µg/mL. Moreover, the “MIC P. aeruginosa” value in the test with Pseudomonas aeruginosa (96-well plate, 37° C., 10 h) worked out at 12.5 µg/mL. The substance also yielded an MIC with E. coli DH5α of 12.5 µg/mL. Further, the “MIC M. catarrhalis” value in the test on Moraxella catarrhalis (96-well plate, 37° C., 10 h) was determined as 25 µg/mL. Further, the “MIC P. vulgaris” value in the test with Proteus vulgaris (96-well plate, 37° C., 10 h) amounted to 25 µg/mL. Further, in the test with Aeromonas hydrophila (96-well plate, 37° C., 10 h), the “MIC A. hydrophila” value stood at 25 µg/mL. For the same substance, in the test on Proteus mirabilis (96-well plate, 37° C., 10 h), the “MIC P. mirabilis” value was found to be 12.5 µg/mL. In addition, in the test with E. coli BL21 (96-well plate, 37° C., 10 h), the “MIC E. coli BL21” value is 12.5 µg/mL. Further, in the test on Enterobacter cloacae (96-well plate, 37° C., 10 h), the “MIC E. cloacae” value was found to be 12.5 µg/mL. In addition, the “MIC K. pneumonia” value against Klebsiella pneumonia (96-well plate, 37° C., 10 h) worked out at 12.5 µg/mL. In addition, the “MIC C. diversus” value with Citrobacter diversus (96-well plate, 37° C., 10 h) worked out at 50 µg/mL.

For the substance “PRT1372 (GSRRCPGDCRGHGLCEDGVCVCDAGYSGEDC; listed as Homo sapiens)”, the “MIC against S. marcescens” value against Serratia marcescens (setting [2]) was 12.5 µg/mL. Also, in the test with Pseudomonas aeruginosa (setting [3]), the “MIC against P. aeruginosa” value is 12.5 µg/mL. The substance further returned an MIC against E. coli DH5α of 12.5 µg/mL. Further, the “MIC against M. catarrhalis” value in the test with Moraxella catarrhalis (setting [4]) is 25 µg/mL. Moreover, the “MIC against P. vulgaris” value in the test on Proteus vulgaris (setting [5]) amounted to 25 µg/mL. The “MIC against A. hydrophila” value against Aeromonas hydrophila (setting [6]) came to 25 µg/mL. Further, the “MIC against P. mirabilis” value against Proteus mirabilis (setting [7]) stood at 12.5 µg/mL. Besides, the “MIC against E. coli BL21” value with E. coli BL21 (setting [1]) came out at 25 µg/mL. For the same substance, the “MIC against E. cloacae” value against Enterobacter cloacae (setting [8]) worked out at 12.5 µg/mL. In addition, the “MIC against K. pneumonia” value against Klebsiella pneumonia (setting [9]) amounted to 25 µg/mL. Besides, in the test with Citrobacter diversus (setting [10]), the “MIC against C. diversus” value came to 12.5 µg/mL.
